Test results: patent US20050192228A1, “Tripeptide derivatives for the treatment of neurodegenerative diseases” (priority 2001, published 2005)

What was measured:
Assay type in all cases: in vivo, Male Wistar rats
[1] = test system: glucocorticoid receptors of the hippocampus; assay: Dexamethasone model: determination of the corticoide receptors in the hippocampus (3H-dexamethasone binding); details: for Type I receptors in Femtomol/mg protein: dexamethasone 50 mg/kg/day, hippocampi removed after the last learning session; for effect on number of receptors of hippocampus neurons (in words): dexamethasone model
Method: (§1) 40 rats were kept and operated as described above. Then, they were divided into the following groups: • one group of 10 rats which received 5 μl/day of physiological serum • one group of 30 rats which received 50 mg/kg/day dexamethasone, dissolved in physiological serum.
After the last learning session at 10.00 a.m., the rats were sacrificed by means of decapitation, and the hippocampi were quickly removed and put on a plate cooled to 0° C. The number of glucocorticoid receptors was determined by a binding method using a labeled corticoid and a specific inhibitor to the binding of the corticoid to the receptor (here a total agonist). The protein content was measured by Lowry's method.
The hippocampi of each rat were homogenized in 2 ml of sodium EDTA Glycerol molybdate buffer. The homogenate was centrifugated at 100.000 g for 60 minutes. An aliquot of the supernatant was diluted in distilled water, and the protein content was measured by Lowry's method.
The rest of the supernatant was divided into three parts of 0.2 ml each. Increasing concentrations (25, 50 and 75 nmoles/ml) of dexamethasone 3H (Amersham 50 Ci/mM) were added to these parts. Three other preparations were carried out under the same conditions, while a saturating quantity of a total […] of the receptors (RU 28362) was added to obtain a non-specific binding of the labeled dexamethasone.
After one night of incubation at 4° C., charcoal/dextran was added to absorb […] dexamethasone. After centrifugation, the radioactivity of the supernatant was measured by liquid scintillation.
The radioactive quantities of the dexamethasone bound to the protein content are recorded. Results are expressed in femtomoles of the labeled corticoid bound to the receptor per mg of proteins.

[2] = test system: rats given Gp120 (Gp120 model); assay: Gp120 model: sound avoidance conditioning (pole climbing test); details: for percentage of avoidance, Day 0 / percentage of avoidance, Day 1 / percentage of avoidance, Day 2 / percentage of avoidance, Day 3 / percentage of avoidance, Day 4: Gp120 10 nM/kg/day for 5 days; for percentage of avoidance, Day 0 / percentage of avoidance, Day 1 / percentage of avoidance, Day 2 / percentage of avoidance, Day 3 / percentage of avoidance, Day 4 / AUC (average area under the learning curve per day): treatment 10 mg/kg/day for 5 days; for percentage of avoidance, Day 0: learning Day 0; for percentage of avoidance, Day 1: learning Day 1; for percentage of avoidance, Day 2: learning Day 2; for percentage of avoidance, Day 3: learning Day 3; for percentage of avoidance, Day 4: learning Day 4; for effect on learning parameters (in words) / AUC (average area under the learning curve per day): Gp120 model; for AUC (average area under the learning curve per day): maximum value 100
Text: 40 rats were slightly anesthetized by ether, an incision was made into the skin of the skull, and the skull was pierced by means of a dental burr. A metal needle was stereotaxically directed to the lateral ventricle, and then fixed by means of dental cement. Every day of the experiment, the patency of the needle was controlled.
Three days after introducing the needle (recovery from the postoperative shock) the non-anesthetized animals were divided into 2 groups: • one group of 10 rats to which 5 μl of physiological serum was injected • one group of 30 rats to which 5 μl of physiological serum containing Gp120 in an amount of 10 nM/kg was injected
This administration was repeated every day for a period of five days.
Ten days after the last administration of Gp120, the thirty rats were randomly divided into three groups of 10 animals each: • (i) one group of 10 rats received 1 ml/kg/day of normal saline (controls) for a period of 5 days. • (ii) one group of 10 rats received 10 mg/kg/day of Cinnamoyl-Gly-L-Phe-L-PrONH2 dissolved in normal saline for a period of 5 days. • (iii) one group of 10 rats received 10 mg/kg/day of tacrine peros for a period of 5 days
(§2) During the last five days of treatment, the rats were placed under the common learning conditions of the three models between 10.00 a.m. and 11.00 a.m. (see below).
(§3) During the last five days of treatment, at 10.00 a.m. (1 hour after the administration of Cinnamoyl-Gly-Phe-PrONH2), the animals were placed into a learning cage for sound avoidance conditioning (Conditioning avoidance response). The animals learned to climb a pole first to escape from and then to avoid an electric shock. This method was standardized and quantified. (see Le Poncin M., Lafitte J. C., Rapin J. R., Sound Avoidance Conditioning and a Mathematical approach to the description of acquisition performance, Math. Biosciences 59 (1982) 242-268).
(§4) For a period of five days, the animals were placed everyday under these learning conditions for a total of ten tests a day. Results are expressed as percentage of adequate responses, and the kinetics of the responses is represented by a multi-exponential maximum curve.
(§5) The curve maximum represents the learning capacities. The slope of the curve evaluates the learning speed. The area under the curve (AUC) represents a good evaluation of all conditioning parameters. The maximum value of the area under the curve is 500, if the animals show 100% adequate responses as early as Day 0. In fact, an average area under the curve is calculated per day, what amounts to a maximum value of 100. In the absolute control animals, this average area under the curve is equal to 40+/−4.

hippocampal neurons = assay: Gp120 model: neuronal count in the CA III layers of the hippocampus; details: percentage of the control group, treatment 10 mg/kg/day for 5 days
Method: After the last learning session, the rats were sacrificed by means of decapitation, and the brain was isolated and frozen to −80° C. with liquid nitrogen. Cuts of a thickness of 50 μm were obtained in a “cryo-cut”, and the neurons are counted in the CA III layers of the hippocampus under a microscope. The results are expressed as percentage of the control group.

[3] = test system: rats given dexamethasone (dexamethasone model); assay: Dexamethasone model: sound avoidance conditioning; details: for percentage of avoidance, Day 0 / percentage of avoidance, Day 1 / percentage of avoidance, Day 2 / percentage of avoidance, Day 3 / percentage of avoidance, Day 4: dexamethasone 50 mg/kg/day; for percentage of avoidance, Day 0: learning Day 0; for percentage of avoidance, Day 1: learning Day 1; for percentage of avoidance, Day 2: learning Day 2; for percentage of avoidance, Day 3: learning Day 3; for percentage of avoidance, Day 4: learning Day 4; for effect on learning capacity (in words) / AUC (average area under the learning curve per day): dexamethasone model; for AUC (average area under the learning curve per day): maximum value 100
Method: as §1, §2, §3, §4, §5

[4] = test system: rats given vincristine (vincristine model); assay: Vincristine model: sound avoidance conditioning; details: for percentage of avoidance, Day 0 / percentage of avoidance, Day 1 / percentage of avoidance, Day 2 / percentage of avoidance, Day 3 / percentage of avoidance, Day 4: vincristine 5 μg/kg/day for 5 days; for percentage of avoidance, Day 0: learning Day 0; for percentage of avoidance, Day 1: learning Day 1; for percentage of avoidance, Day 2: learning Day 2; for percentage of avoidance, Day 3: learning Day 3; for percentage of avoidance, Day 4: learning Day 4; for AUC pro Tag: average area under the learning curve per day, maximum value 100
Method: Rats were kept and treated as described above in 3. Then they were divided into the following groups: • one group of 10 rats which received 5 μl/day of physiological serum over a period of 5 days • one group of 30 rats which received 5 μl/day of physiological serum containing 5 μg/kg vincristine over a period of 5 days
A dosage of 5 μg/kg/day causes a 40 to 60% loss of the hippocampal arborization.
After the last administration, the second group of 30 rats was divided at random into three sub-groups and treated as described above in 3.
as §3, §4, §5

hippocampal arborization = assay: Vincristine model: loss of the hippocampal arborization; details: vincristine 5 μg/kg/day
Method: Vincristine is an anticarcinogen that is used as a synchronizing agent. This molecule binds to the spindle of microtubules, thus blocking the cellular multiplication during the metaphase. It is a spindle poison. […] Vincristine binds to these neurofibrils thus causing peripheral neural conduction disorders in patients who are treated for neoplasm. These effects mainly affect the white matter of the axons. […] The repeated ICV administration of vincristine causes a degeneration of the conduction pathways with the appearance of abnormal neurofibrils similar to those observed in Alzheimer's disease. This degeneration mainly affects the periventricular structures. The hippocampi are affected through a decrease of their ramifications, while the cell bodies of the neurons are not altered. […] After this period, a protective layer forms on the glia cells that prevent the diffusion of vincristine from the CSF to the neighboring nerve cells. There is no spontaneously developing Alzheimer's disease in rats that would show the different types of degenerative lesions (beta-amyloid plaques, neurofibrillary and vacuolar degeneration). ICV administration of vincristine, which may cause neurofibrillary degeneration, may be used as a partial animal model of this disease. […]

Compound | percentage of avoidance, Day 0 [2] [%] | percentage of avoidance, Day 1 [2] | percentage of avoidance, Day 2 [2] | percentage of avoidance, Day 3 [2] | percentage of avoidance, Day 4 [2] | effect on learning parameters (in words) [2] | AUC (average area under the learning curve per day) [2] | Percentage of hippocampal neurons (hippocampal neurons) | percentage of avoidance, Day 0 [3] [%] | percentage of avoidance, Day 1 [3] | percentage of avoidance, Day 2 [3] | percentage of avoidance, Day 3 [3] | percentage of avoidance, Day 4 [3] | effect on learning capacity (in words) [3] | AUC (average area under the learning curve per day) [3] | Type I receptors in Femtomol/mg protein [1] | effect on number of receptors of hippocampus neurons (in words) [1] | percentage of avoidance, Day 0 [4] [%] | percentage of avoidance, Day 1 [4] | percentage of avoidance, Day 2 [4] | also measured
C[C@@H]1C[C@H]2[C@@H]3CCC4=CC(=O)C=C[C@]4(C)[C@@]3(F)[C@@H](O)C[C@]2(C)[C@@]1(O)C(=O)CO [dexamethasone] |  |  |  |  |  |  |  |  |  |  |  |  |  |  |  |  |  |  |  |  | decrease in the number of corticoide receptors in the hippocampus ([1]; dexamethasone, dosage and treatment time of this experiment): ~60%
NC(=O)[C@@H]1CCCN1C(=O)[C@H](Cc1ccccc1)NC(=O)CNC(=O)C=Cc1ccccc1 [tripeptide derivative, cinnamoyl-glycyl-L-phenylalanyl-L-prolineamide] | 0 | 5 +/− 2% | **18 +/− 2% | **32 +/− 2% | **43 +/− 3% | improvement of the learning capacities | **19.6 +/− 1.8 | *54 ± 3% | 0 | 8 +/− 3% | **28 +/− 3% | **68 +/− 3% | **77 +/− 3% | considerably restores the learning capacity | **36.2 +/− 1.2 | **85 ± 9 Femtomol/mg protein | significant increase of the number of receptors | 0 | 5 +/− 2% | **20 +/− 2% | effect on learning parameters (in words) ([2]; listed as Cinnamoyl-Gly-Phe-ProNH2): partly restores the learning parameters; percentage of avoidance, Day 3 [4]: **45 +/− 3%; percentage of avoidance, Day 4 [4]: **53 +/− 3%; AUC pro Tag ([4]; vincristine model): **24.6 +/− 1.0
Nc1c2c(nc3ccccc13)CCCC2 [tacrine] | 0 | 5 +/− 2% | **18 +/− 2% | **31 +/− 3% | **42 +/− 4% | partly restores the learning parameters | 19.4 +/− 2.2 | 45 ± 3% | 0 | 5 +/− 2% | 15 +/− 3% | 42 +/− 4% | 52 +/− 4% | does not show any effect | 22.8 +/− 1.3 | 46 ± 5 Femtomol/mg protein | does not show any effect | 0 | 2 +/− 1% | 7 +/− 2% | percentage of avoidance, Day 3 [4]: 19 +/− 2%; percentage of avoidance, Day 4 [4]: 28 +/− 3%; effect on learning capacities (in words) ([4]; vincristine model): does not show an effect; AUC pro Tag ([4]; vincristine model): 11.2 +/− 0.8
CC[C@]1(O)C[C@H]2CN(CCc3c([nH]c4ccccc34)[C@@](C(=O)OC)(c3cc4c(cc3OC)N(C=O)[C@H]3[C@@](O)(C(=O)OC)[C@H](OC(C)=O)[C@]5(CC)C=CCN6CC[C@]43[C@@H]65)C2)C1 [vincristine] |  |  |  |  |  |  |  |  |  |  |  |  |  |  |  |  |  |  |  |  | loss of the hippocampal arborization (hippocampal arborization): 40 to 60%
